The text below walks through data of patent US6448287B1 (priority 1999, dated 2002).

Values after ≈ are worked out from the molar mass of the structure shown. Read-outs that look alike come from different tables or passages of the source. A value given as a limit tells only on which side of the number the result lay.

One data set relates to MCF-7 (Breast Carcinoma). In words: Toxicity test in cell monolayers, MCF-7. It counts as cell-based. The following applies: Homo sapiens, MCF7, 96 h, lipoic acid as sodium salt. The method, then: (§1) In solid tumors, proliferating cells are sometimes more sensitive to treatment than quiescent, non-proliferating cells. To investigate this in cell monolayers, we used sparse plating densities (6K/well in a 96 well plate) to allow cell proliferation and confluent densities (24K/well in a 96 well plate) to simulate quiescent cells. Cells were plated in 96 well plates at sparse or confluent densities and then incubated four days in growth medium supplemented with various doses of antioxidants. After incubation, cell numbers were determined by standard […] techniques. Data were analyzed by scaling the cell number at any given antioxidant dose to that of the control and fitting the dose-response data to a sigmoid curve. Values of LC50, the dose required to reduce cell number by fifty percent relative to untreated controls, were computed from the sigmoid data fit.

In data set [1] the test system is Mia PaCa (Pancreatic Carcinoma). In words: Toxicity test in cell monolayers, Mia PaCa. It counts as cell-based. The following applies: Homo sapiens, MIA PaCa-2, 96 h, lipoic acid as sodium salt. The method, then: as §1
The conditions of data set [2]: male, human, in vivo, iv. The procedure:
(§2) A person with diagnosed metastatic prostate cancer was infused intravenously with […] sodium ascorbate in sterile water over an eighty minute period. Blood samples were taken at regular intervals over a twenty-four hour period, frozen, and then analyzed for ascorbate content using a colorimetric assay. The ascorbate plasma concentration was analyzed in a prostate cancer patient given a 60 gram intravenous infusion of sodium ascorbate over an 80 minute period. […] The plasma volume Vp, was fixed at 30 dl. […] Predicted plasma ascorbate levels from a two compartment, four parameter pharmacokinetic model of ascorbate transport and clearance in blood. […] Infusion is modeled as continuous. Parameter values for the compartmental model are as follows: KX=0.124 min^−1, K1=0.124 min^−1, K2=0.038 min^−1. The plasma volume Vp, was fixed at 30 dl. A phase one clinical trial is currently under way to assess the safety of continuous ascorbate infusions, and is currently near completion.

Data set [3] is described as follows: Toxicity test in cell monolayers, ECV-304. The data set is classed as cell-based. The following applies: human, ECV-304 endothelial cell monolayer; read-out: LC50. The procedure:
as §1

The subject of data set [4] is SW620 hollow fiber tumors. The note with it: hollow fiber solid tumor model, background statement; cited from earlier work.
The conditions of data set [5]: humans, intravenous infusion, peak level; cited from earlier work.
Data set [6] has as its system SW620 (Colon Adenocarcinoma). In words: Toxicity test in cell monolayers, SW620. It counts as cell-based. The note with it: Homo sapiens, SW-620, 96 h, lipoic acid as sodium salt. The procedure:
as §1

Data set [7] has as its system SW620 hollow fiber tumors.
Experimental: (§3) SW620 hollow fiber solid tumors were grown as previously described. […] SW620 colon carcinoma cells were prepared in cell culture medium at a concentration of 10^7 cells/ml and injected into the hollow fibers. The fibers were then heat sealed at roughly 2 cm intervals to trap the cells inside them. SW620 hollow fibers were then cultured in Petri dishes for three days. After three days, the hollow fibers are transferred to stirred medium either by moving them to spinner flasks containing 50 ml cell culture medium stirred at 150 rpm by a magnetic stirrer or by transferring them to six-well plates placed on an orbital shaker at 150 rpm. Cell culture medium was replenished on days three and six. […] After one or two days incubation on an orbital shaker, the hollow fiber tumors were rinsed and the cells were extruded out of the fibers with trypsin. The cylindrical tumor cell mass was exposed to trypsin while pipetting up and down to form a single cell suspension. Cell culture medium was then added to stop trypsin action. Surviving fractions were determined as previously described. Briefly, cells were transferred to ninety-six-well plates at a concentration of 5000 cells per well and incubated for six days. The surviving cell population was then measured using the SRB colorimetric assay. Surviving fraction was expressed as the ratio of the SRB staining at a given dose to that for cells from untreated hollow fiber tumors.
(§4) The surviving fractions without ascorbate (denoted SFO) were analyzed along with the doses of ascorbate required to reduce the surviving fraction to half the SFO value, denoted LC50. Standard deviations for SFO and LC50 values were analyzed by the curve-fitting program KalediaGraph (Synergy Software).
(§5) Data from three replicate experiments were pooled. The doses of ascorbate required to reduce the surviving fraction to half the control value were denoted as LC50. Standard deviations on LC50 values were estimated by the curve-fitting program kaleidaGraph (Synergy Software).
Another data set deals with SK-MEL (Melanoma). As to the kind of experiment: Toxicity test in cell monolayers, SK-MEL. The data set is classed as cell-based. The note with it: Homo sapiens, 96 h, lipoic acid as sodium salt. The procedure: as §1
Data set [8] relates to SW620 hollow fiber tumors. In words: cells. The note with it: Homo sapiens, SW-620, read-out: ascorbate LC50 (dose reducing surviving fraction to half the control value).
Experimental: as §3, §4, §5
Data set [9] is described as follows: Phase one clinical trial of continuous ascorbate infusions (safety). The following applies: doses up to 50 g/day. The method, then: as §2
In the next data set the test system is B16 melanoma. As to the kind of experiment: Murine tumor model: B16 melanoma in C57 mice. The data set is classed as in vivo. The method, then:
C57 mice were divided into groups of twenty and inoculated by B16 melanoma cells subcutaneously. After forty-eight hours, treatments were administered once every other day for a five week period by subcutaneous injection near the tumor site. Tumor size was measured on days ten, seventeen, and twenty-four of treatment. […]

In the case of `O=C1O[C@H]([C@@H](O)CO)C(O)=C1O` [Ascorbate, ascorbic acid], the CC50 in the data set on MCF-7 (Breast Carcinoma) (read-out: LC50, MCF-7, confluent density (24K/well), four days incubation) came out at 230 ± 30 µg/mL; in the data set on MCF-7 (Breast Carcinoma) (read-out: LC50, MCF-7, sparse density (6K/well), four days incubation), 120 ± 10 µg/mL; in [1] (read-out: LC50, Mia PaCa, confluent density (24K/well), four days incubation), 3080 ± 330 µg/mL; in data set [1] (read-out: LC50, Mia PaCa, sparse density (6K/well), four days incubation), 530 ± 60 µg/mL; in data set [6] (read-out: LC50, SW620, confluent density (24K/well), four days incubation), 390 ± 140 µg/mL; in data set [6] (read-out: LC50, SW620, sparse density (6K/well), four days incubation), 300 ± 40 µg/mL. Moreover, the CC50 was determined as 780 ± 160 µg/mL in the data set on SK-MEL (Melanoma) (read-out: LC50, SK-MEL, confluent density (24K/well), four days incubation); 150 ± 20 µg/mL with SK-MEL (Melanoma) (read-out: LC50, SK-MEL, sparse density (6K/well), four days incubation); 4900 µg/mL (≈ 27.8 mM) in data set [8]. The same compound yielded a K1 in data set [2] of 0.124 min⁻¹. The same compound had a K2 in [2] of 0.038 min⁻¹. In data set [2], this compound displayed a KX of 0.124 min⁻¹. In [2], this compound gave a peak plasma value of 460 mg/dL. For the same compound, the CC50 at 4 days in [3] was determined as 1490 ± 160 µg/mL (≈ 8.46 mM). The “ascorbate concentration that may be required to effectively treat tumors” value in data set [4] is recorded as > 500 mg/dL. Also, the “maximum plasma ascorbic acid concentration generally achievable” value in data set [5] is “roughly 500 mg/dL”. Besides, the surviving fraction result in [7] (52 mg/dL ascorbate for forty-eight hours, based on the data in EXAMPLE 2) is “greater than ninety percent”. For the same compound, in [9], the “safety of continuous ascorbate infusions” value is “found safe”.
With `O=C(O)CCCCC1CCSS1` (racemic) [Lipoic Acid, DL-α-Lipoic Acid (DL-6,8-Thioctic Acid)], the “toxic effect of lipoic acid itself (surviving fraction without ascorbate, SFO)” value in [7] (lipoic acid 5 mg/dl or 20 mg/dl, 48 hours) was “exhibited a toxic effect”. For the same compound, the “Animal Survival (percent)” value in the data set with B16 melanoma (day twenty-four, control 70%) came to 90%. Further, the “Animal Survival (survivors/group)” value with B16 melanoma (day twenty-four, groups of twenty, control 14/20) is listed as 18/20. In addition, in the data set on B16 melanoma (measured on days ten, seventeen and twenty-four of treatment), the “tumor size compared with the control group” value is reported as “significantly smaller”.
